Test results taken from patent US5877030A, “Process for creating molecular diversity and novel protease inhibitors produced thereby” (priority 1995, dated 1999).

Experiments:
[1] = rat model; Sobajima et al.; cited from earlier work
trypsin [2] = target: T1, trypsin (Bos taurus, UniProt P00760); test: Ki determination on trypsin (BAPA substrate, Michaelis-Menten / reciprocal plots); assay type: biochemical; conditions: for Ki: preliminary investigations
T1 sequence (P00760 24-246): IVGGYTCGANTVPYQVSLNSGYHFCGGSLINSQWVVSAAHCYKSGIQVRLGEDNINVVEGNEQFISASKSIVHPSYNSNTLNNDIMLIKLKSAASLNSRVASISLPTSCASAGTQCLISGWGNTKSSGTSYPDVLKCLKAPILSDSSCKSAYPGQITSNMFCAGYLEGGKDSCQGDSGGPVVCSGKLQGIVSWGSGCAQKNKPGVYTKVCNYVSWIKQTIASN
Experimental: The rate of the trypsin catalyzed reaction was determined by monitoring the increase in absorbance at 410 nm over time. In all measurements 5% (v/v) of dimethylsulfoxide (DMSO) was added to solubilize the libraries. For a typical assay, 50 μL of a library solution in DMSO and 10 μL of the trypsin stock solution (2.5 mg trypsin in 25 mL 0.001M HCl) were added to 5 mL of buffer (0.5M Tris-HCl, 0.16M CaCl21 pH 8.2) at 25° C. In regard to FIG. 19, the library solutions used for Charts A and B contained 2.5 mg in 50 μL DMSO; the library solution for Chart C contained 1 mg in 50 AL DMSO and the library solution for Chart D contained 0.5 mg in 50 μL DMSO.
After incubating for 10 min., the cloudy mixture was centrifuged, 0.4 mL of the clear supernatant was removed and diluted with 400 μL of buffer in a disposable 1.5 mL UV cuvette. Then, 50 μL of the BAPA (defined below) stock solution (50 mg BAPA in 5 mL DMSO) was added and the increase in absorbance at 410 nm was monitored. The trypsin activity was compared to a reference cuvette without added library material (B).
Methods for determining the Ki of an enzyme inhibitor would be known to those of ordinary skill in the art. (See also "Enzyme Kinetics & Behavior, Analysis of Rapid Equilibrium, and Steady State Enzyme Systems", ed. Segel, John Wiley & Sons, Inc., N.Y., N.Y. (1993), the contents of which are incorporated herein by reference.) A summary of the procedure used to obtain the Ki value for compound of Formula V.

thrombin = test: Specificity against other proteases such as thrombin (initial experiments); assay type: biochemical
trypsin [3] = target: T1, trypsin; test: Trypsin inhibitor assay (trypsin-catalyzed hydrolysis of BAPA, absorbance at 410 nm), iterative screening of libraries; assay type: biochemical; conditions: comparison in words
Experimental: Each sub-library 1A-1F was tested for its ability to inhibit trypsin activity and the percent trypsin activity was correlated to the specific tool molecule group (see Table 3) that had been omitted during synthesis of the sub-library being assayed.

SMILES: CS(=O)(=O)O.N=C(N)Nc1ccc(C(=O)Oc2ccc(SCCN3C(=O)CCC3=O)cc2)cc1 [4-(2-succinimidoethylthio)-phenyl 4-guanidinobenzoate methane sulfonate]
- treatment of severe acute pancreatitis [1]: treating severe acute pancreatitis

SMILES: CC[C@H](C)[C@H](NC(=O)c1cc(C(=O)N2CCC[C@H]2C(=O)O)cc2c1Oc1c(C(=O)N[C@@H](CCCCN)C(=O)OC)cc(C(=O)N[C@H](C(=O)O)C(C)C)cc1C2(C)C)C(=O)O [Formula V]
- mode of inhibition of trypsin (trypsin [2]; 1/velocity vs. 1/(substrate concentration), five inhibitor concentrations 1×10^-6 M to 1×10^-4 M): competitive inhibitor of trypsin
- Ki (trypsin [2]; 'in the 10 μM range'): ~10 µM
- Ki (trypsin [2]; trypsin 7.4×10^-8 M, BAPA 2×10^-4 M to 7×10^-3 M, inhibitor 1×10^-6 M to 1×10^-4 M): ~9 µM
- interference with other proteases, such as thrombin (thrombin): does not interfere with other proteases, such as thrombin
- activity relative to structural isomer Formula VI (trypsin [3]): significantly more active than its structural isomer Formula VI
